Experimental data taken from US20130165368A1, “ANTIMICROBIAL COMPOUNDS” (priority 2010, published 2013).
In brackets after ≈: the same amount, converted by molar mass.

Tests used:
[1] = tested on: MRSA NCTC 11939; experiment: Synergy testing: disc susceptibility, zone of inhibition on agar containing Laureth derivative; type: cell-based, Staphylococcus aureus; details: MRSA NCTC 11939, disc test
Description: There now follows data relating to a screen for synergistic interaction between Laureth derivatives [C12E1 to C12E8] and 12 conventional anti-staphylococcal agents.
Ethoxylated Lauryl Alcohol Derivative Preparation As plates containing quarter strength of the MIC of NCTC 11939 are needed, and therefore very small weights of each compound, they were prepared at twenty time strength in 20 mL volumes in plastic universals. Once prepared these solutions were diluted […] by adding 1 mL to 1 mL SDW, resulting a 2 mL volume at ten times strength. This was undertaken in duplicate to create two identical plates.
IST was prepared as previously stated in above. 18 mL agar was added to each universal and then poured into sterile Petri dishes. Control plates were prepared as stated above
A 0.5 McFarland suspension of MRSA NCTC 11939 was prepared using SDW. This was then adjusted to a concentration of 1.5×107 by adding 200 μL to 1.8 mL of SDW. Once diluted, a sterile cotton swab was used to spread the suspension evenly across the entire surface of each agar plate.
Twelve antibiotics discs were added to the plates, 6 per plate in a circle. The plates were then incubated aerobically at 37° C.
The diameter of the zones of clearance were measured and recorded in millimetres. The zones for each compound were compared to the control and to BSAC breakpoints.
A variation of zone size within 2 mm is within acceptable limits of assay reproducibility.

[2] = tested on: yeasts; experiment: MIC with yeasts (Table XI); type: cell-based; details: 48 h, 48 hours at 37° C., aerobic
Description: (§1) Further experiments have also been conducted to determine the MIC of a number of other compositions as follows. The experimental procedure followed is the same as that initially described at the beginning of this Examples and Data section of the specification, except where indicated below.
The results were obtained following incubation for 48 hours at 37° C. in aerobic conditions.

[3] = tested on: Respiratory Syncytial Virus (RSV), strain A2; experiment: Antiviral: cytopathic effect of RSV on A549 cells; type: cell-based; details: for Cytopathic effect (cpe): added 1 hour after virus absorption, 96 hours at 33° C., versus untreated lane
Description: A549 (ATCC CCL-185) cells were plated onto a 96 well and allowed to attach overnight, the wells were washed, and 100 ul of DMEM (Gibco) with 2% FCS was added. To the first column of the data set below, 100 μl of neat virus was added. The virus used was Respiratory Syncytial Virus (RSV), strain A2, a common laboratory strain which retains the ability to infect animal models.
A two serial dilution was performed (up to column 10), lanes 11+12 were uninfected controls, but relevant lanes contained the appropriate concentration of Laureth 4, laureth 4 was added 1 hour after virus absorption. The alkoxylated alkanol compounds used in the experiment were ‘high purity’, i.e. having a GC purity of at least 97%.
After 96 hours incubation at 33° C. the medium was removed, cell washed with PBS and stained with methylene blue (Gibco). Cytopathic effect (cpe) was noted visually and wells marked either as positive or negative when view under a light microscope at 4× magnification.

[4] = tested on: Propionibacteria; experiment: MIC with Propionibacteria (Table X); type: cell-based; details: 48 h, 48 hours at 37° C., anaerobic
Description: as §1
The results were obtained following incubation for 48 hours at 37° C. in anaerobic conditions.

In the case of `CCCCCCCCCCCCOCCOCCOCCOCCOCCOCCOCCOCCO` [L8, Octaethylene Glycol Monododecyl Ether], the “susceptibility to various other agents in the presence of Laureth derivative” value [1] is reported as “slight increase in susceptibility”.

With `CCCCCCCCCCCCOCCOCCOCCOCCO` [L4, Tetraethylene Glycol Monododecyl Ether] the MIC ([2]; Candida guilliemondii 380022E) was over 220 µM, the MIC ([2]; Candida lustaniae 458891B) was over 220 µM and the MIC ([2]; all of the yeasts tested) was under 880 µM. For the same compound, the MIC ([2]; Candida albicans, Candida albicans 383107) was over 220 µM, the MIC ([2]; Candida albicans, Candida albicans 384403C) was 220 µM (≈ 79.8 µg/mL) and the MIC ([2]; Candida albicans, Candida albicans 457932F) was over 220 µM. The MIC ([2]; Candida albicans, Candida albicans 464644V) was 220 µM (≈ 79.8 µg/mL), the MIC ([2]; Candida albicans, Candida albicans 540668D) was 110 µM (≈ 39.9 µg/mL) and the MIC ([2]; Candida albicans, Candida albicans 540992V) was 220 µM (≈ 79.8 µg/mL). It also gave an MIC ([2]; Candida albicans, Candida albicans 561251J) of over 220 µM, an MIC ([2]; Candida dubliniensis, Candida dubliniensis 383086P) of 110 µM (≈ 39.9 µg/mL) and an MIC ([2]; Candida tropicalis, Candida tropicalis 470273M) of over 220 µM. The MIC ([2]; Kluyveromyces marxianus, Candida kefyr 337838T) was 55 µM (≈ 19.9 µg/mL), the MIC ([2]; Lodderomyces parapsilosis, Candida parapsilosis 381611V) was over 220 µM and the MIC ([2]; Lodderomyces parapsilosis, Candida parapsilosis 547133B) was over 220 µM. For the same compound, the MIC ([2]; Nakaseomyces glabratus, Candida glabrata 437713D) was over 220 µM, the MIC ([2]; Nakaseomyces glabratus, Candida glabrata 882870Q) was over 220 µM and the MIC ([2]; Pichia kudriavzevii, Candida krusei 378573D) was over 220 µM. The “Cytopathic effect (cpe)” value ([3]; 0.01 mM) was “significantly reduced”, the “Cytopathic effect (cpe)” value ([3]; 0.1 mM) was “significantly reduced” and the “cytopathic effect of the virus on the cells (overall)” value ([3]; RSV A2 on A549 cells) was “can alleviate the cytopathic effect”. For the same compound, the MIC ([4]; Propionibacterium granulosum 354039G) was 440 µM (≈ 160 µg/mL), the MIC ([4]; Propionibacterium granulosum 354043J) was 440 µM (≈ 160 µg/mL) and the MIC ([4]; Propionibacterium granulosum 354044V) was 880 µM (≈ 319 µg/mL). It also gave an MIC ([4]; Propionibacterium species 387327Y) of 440 µM (≈ 160 µg/mL), an MIC ([4]; certain of the Propionibacteria tested) of under 880 µM and an MIC ([4]; Cutibacterium acnes, Propionibacterium acnes 737) of 880 µM (≈ 319 µg/mL). For the same compound, the MIC ([4]; Cutibacterium avidum, Propionibacterium avidum 340090P) was 880 µM (≈ 319 µg/mL), the MIC ([4]; Cutibacterium avidum, Propionibacterium avidum 340093T) was 880 µM (≈ 319 µg/mL) and the MIC ([4]; Cutibacterium avidum, Propionibacterium avidum 340097V) was 880 µM (≈ 319 µg/mL). The MIC ([4]; Cutibacterium avidum, Propionibacterium avidum 354020J) was 880 µM (≈ 319 µg/mL) and the MIC ([4]; Cutibacterium avidum, Propionibacterium avidum 354025L) was 880 µM (≈ 319 µg/mL).
